Test results taken from patent publication US8497380B2, “Substituted acetophenones useful as PDE4 inhibitors” (Leo Pharma A/S, priority 2006, dated 2013).

Each molecule was assayed on Human peripheral blood mononuclear cells (PBMC) (assay: TNFalfa-Release). Details: inhibition of TNF-a secretion, PBMC pre-incubated 30 minutes, stimulated 18 hours with lipopolysaccharide.
Type: cell-based
Procedure: Human peripheral blood mononuclear cells (PBMC) are Isolated from buffy coats. The blood is mixed with saline at a ratio of 1:1, and the PBMC is isolated by the use of Lymphoprep Tubes™ (Nycomed, Norway). The PBMC is suspended in RPMI1640 with 2% foetal calf serum (FCS), pen/strep and 2 mM L-glutamine at a concentration of 5×105 c/ml. The cells are pre-incubated for 30 minutes with the test compounds in 96 well tissue culture plates and stimulated for 18 hours with lipopolysaccharide 1 mg/ml (Sigma). The level of TNF-a is measured in the culture supernatant by enzyme immuno assays using primary and secondary biotinylated antibodies from R&D systems. Results are expressed as pIC50 values calculated from inhibition curves using as positive controls the secretion in LPS stimulated wells and as negative controls the secretion in unstimulated cells.

Compound | IC50
COc1ccc(C(=O)Cc2c(Cl)cncc2Cl)c(O)c1OC [Compound 101, 2-(3,5-Dichloro-pyridin-4-yl)-1-(2-hydroxy-3,4-dimethoxy-phenyl)-ethanone] | < 1000 nM
CCOc1c(OC)ccc(C(=O)Cc2c(Cl)cncc2Cl)c1OCC [Compound 104, 2-(3,5-Dichloro-pyridin-4-yl)-1-(2,3-diethoxy-4-methoxy-phenyl)-ethanone] | < 1000 nM
C=CCOc1c(OC)ccc(C(=O)Cc2c(Cl)cncc2Cl)c1OCC=C [Compound 106, 1-(2,3-Bis-allyloxy-4-methoxy-phenyl)-2-(3,5-dichloro-pyridin-4-yl)-ethanone] | < 1000 nM
COc1ccc(C(=O)Cc2c(Cl)cncc2Cl)c(OC(F)F)c1OC(F)F [Compound 107, 1-(2,3-Bis-difluoromethoxy-4-methoxy-phenyl)-2-(3,5-dichloro-pyridin-4-yl)-ethanone] | < 1000 nM
COc1ccc(C(=O)Cc2c(Cl)cncc2Cl)c(OCc2cc(C)on2)c1OC [Compound 108, 2-(3,5-Dichloro-pyridin-4-yl)-1-[3,4-dimethoxy-2-(5-methyl-isoxazol-3-ylmethoxy)-phenyl]-ethanone] | < 1000 nM
COCCOc1c(C(=O)Cc2c(Cl)cncc2Cl)ccc(OC)c1OC [Compound 109, 2-(3,5-Dichloro-pyridin-4-yl)-1-[3,4-dimethoxy-2-(2-methoxy-ethoxy)-phenyl]-ethanone] | < 1000 nM
CC#CCOc1c(C(=O)Cc2c(Cl)cncc2Cl)ccc(OC)c1OC [Compound 110, 1-(2-But-2-ynyloxy-3,4-dimethoxy-phenyl)-2-(3,5-dichloro-pyridin-4-yl)-ethanone] | < 1000 nM
COc1ccc(C(=O)Cc2c(Cl)cncc2Cl)c(OCC=C(C)C)c1OC [Compound 111, 2-(3,5-Dichloro-pyridin-4-yl)-1-[3,4-dimethoxy-2-(3-methyl-but-2-enyloxy)-phenyl]-ethanone] | < 1000 nM
COc1ccc(C(=O)Cc2c(Cl)cncc2Cl)c(OCCc2ccccc2)c1OC [Compound 112, 2-(3,5-Dichloro-pyridin-4-yl)-1-(3,4-dimethoxy-2-phenethyloxy-phenyl)-ethanone] | < 1000 nM
COc1ccc(C(=O)Cc2c(Cl)cncc2Cl)c(OCc2ccccc2)c1OC [Compound 113, 1-(2-Benzyloxy-3,4-dimethoxy-phenyl)-2-(3,5-dichloro-pyridin-4-yl)-ethanone] | < 1000 nM
C=CCOc1c(C(=O)Cc2c(Cl)cncc2Cl)ccc(OC)c1OC [Compound 114, 1-(2-Allyloxy-3,4-dimethoxy-phenyl)-2-(3,5-dichloro-pyridin-4-yl)-ethanone] | < 1000 nM
COc1ccc(C(=O)Cc2c(Cl)cncc2Cl)c(OCc2nc3ccccc3o2)c1OC [Compound 115, 1-[2-(Benzooxazol-2-ylmethoxy)-3,4-dimethoxy-phenyl]-2-(3,5-dichloro-pyridin-4-yl)-ethanone] | < 1000 nM
COc1ccc(C(=O)Cc2c(Cl)cncc2Cl)c(OCc2csc(C)n2)c1OC [Compound 116, 2-(3,5-Dichloro-pyridin-4-yl)-1-[3,4-dimethoxy-2-(2-methyl-thiazol-4-ylmethoxy)-phenyl]-ethanone] | < 1000 nM
COc1ccc(C(=O)Cc2c(Cl)cncc2Cl)c(OCc2nnc(C3CC3)s2)c1OC [Compound 117] | < 1000 nM
COc1ccc(C(=O)Cc2c(Cl)cncc2Cl)c(OCc2ncon2)c1OC [Compound 118, 2-(3,5-Dichloro-pyridin-4-yl)-1-[3,4-dimethoxy-2-([1,2,4]oxadiazol-3-ylmethoxy)-phenyl]-ethanone] | < 1000 nM
CCOC(=O)COc1c(C(=O)Cc2c(Cl)cncc2Cl)ccc(OC)c1OC [Compound 119, {6-[2-(3,5-Dichloro-pyridin-4-yl)-acetyl]-2,3-dimethoxy-phenoxy}-acetic acid ethyl ester] | < 1000 nM
COc1ccc(C(=O)Cc2c(Cl)cncc2Cl)c(OCCc2ccc(Cl)cc2)c1OC [Compound 120, 1-{2-[2-(4-Chloro-phenyl)-ethoxy]-3,4-dimethoxy-phenyl}-2-(3,5-dichloro-pyridin-4-yl)-ethanone] | < 1000 nM
COc1ccc(C(=O)Cc2c(Cl)cncc2Cl)c(OCc2ccc(Cl)s2)c1OC [Compound 121, 1-[2-(5-Chloro-thiophen-2-ylmethoxy)-3,4-dimethoxy-phenyl]-2-(3,5-dichloro-pyridin-4-yl)-ethanone] | < 1000 nM
COc1ccc(C(=O)Cc2c(Cl)cncc2Cl)c(OCCOc2ccccc2)c1OC [Compound 122, 2-(3,5-Dichloro-pyridin-4-yl)-1-[3,4-dimethoxy-2-(2-phenoxy-ethoxy)-phenyl]-ethanone] | < 1000 nM
COc1ccc(C(=O)Cc2c(Cl)cncc2Cl)c(OCCc2ccc(C)cc2)c1OC [Compound 123, 2-(3,5-Dichloro-pyridin-4-yl)-1-[3,4-dimethoxy-2-(2-p-tolyl-ethoxy)-phenyl]-ethanone] | < 1000 nM

Compound | IC50
COc1ccc(C(=O)Cc2c(Cl)cncc2Cl)c(OCCCc2ccccc2)c1OC [Compound 124, 2-(3,5-Dichloro-pyridin-4-yl)-1-[3,4-dimethoxy-2-(3-phenyl-propoxy)-phenyl]-ethanone] | < 1000 nM
COc1cccc(CCOc2c(C(=O)Cc3c(Cl)cncc3Cl)ccc(OC)c2OC)c1 [Compound 125, 2-(3,5-Dichloro-pyridin-4-yl)-1-{3,4-dimethoxy-2-[2-(3-methoxy-phenyl)-ethoxy]-phenyl}-ethanone] | < 1000 nM
COc1ccc(CCOc2c(C(=O)Cc3c(Cl)cncc3Cl)ccc(OC)c2OC)cc1 [Compound 126, 2-(3,5-Dichloro-pyridin-4-yl)-1-{3,4-dimethoxy-2-[2-(4-methoxy-phenyl)-ethoxy]-phenyl}-ethanone] | < 1000 nM
COc1ccc(C(=O)Cc2c(Cl)cncc2Cl)c(OCCc2cccc(Br)c2)c1OC [Compound 127, 1-{2-[2-(3-Bromo-phenyl)-ethoxy]-3,4-dimethoxy-phenyl}-2-(3,5-dichloro-pyridin-4-yl)-ethanone] | < 1000 nM
COc1ccccc1CCOc1c(C(=O)Cc2c(Cl)cncc2Cl)ccc(OC)c1OC [Compound 128, 2-(3,5-Dichloro-pyridin-4-yl)-1-{3,4-dimethoxy-2-[2-(2-methoxy-phenyl)-ethoxy]-phenyl}-ethanone] | < 1000 nM
COc1ccc(C(=O)Cc2c(Cl)cncc2Cl)c(OCCc2ccc(F)cc2)c1OC [Compound 129, 2-(3,5-Dichloro-pyridin-4-yl)-1-{2-[2-(4-fluoro-phenyl)-ethoxy]-3,4-dimethoxy-phenyl}-ethanone] | < 1000 nM
COc1ccc(C(=O)Cc2c(Cl)cncc2Cl)c(OCCc2ccccc2F)c1OC [Compound 130, 2-(3,5-Dichloro-pyridin-4-yl)-1-(2-[2-(2-fluoro-phenyl)-ethoxy)-3,4-dimethoxy-phenyl]-ethanone] | < 1000 nM
COc1ccc(CCOc2c(C(=O)Cc3c(Cl)cncc3Cl)ccc(OC)c2OC)cc1OC [Compound 131, 2-(3,5-Dichloro-pyridin-4-yl)-1-{2-[2-(3,4-dimethoxy-phenyl)-ethoxy]-3,4-dimethoxy-phenyl}-ethanone] | < 1000 nM
COc1ccc(C(=O)Cc2c(Cl)cncc2Cl)c(OCC(=O)OCc2ccccc2)c1OC [Compound 132, {6-[2-(3,5-Dichloro-pyridin-4-yl)-acetyl]-2,3-dimethoxy-phenoxy}-acetic acid benzyl ester] | < 1000 nM
COc1ccc(C(=O)Cc2c(Cl)cncc2Cl)c(OCC(=O)OC(C)C)c1OC [Compound 133, {6-[2-(3,5-Dichloro-pyridin-4-yl)-acetyl]-2,3-dimethoxy-phenoxy}-acetic acid isopropyl ester] | < 1000 nM
COC(=O)c1cccc(COc2c(C(=O)Cc3c(Cl)cncc3Cl)ccc(OC)c2OC)c1 [Compound 134, 3-{6-[2-(3,5-Dichloro-pyridin-4-yl)-acetyl]-2,3-dimethoxy-phenoxymethyl}-benzoic acid methyl ester] | < 1000 nM
COc1ccc(C(=O)Cc2c(Cl)cncc2Cl)c(OCCC(C)C)c1OC [Compound 135, 2-(3,5-Dichloro-pyridin-4-yl)-1-(3,4-dimethoxy-2-(3-methyl-butoxy)-phenyl)-ethanone] | < 1000 nM
C=CCCOc1c(C(=O)Cc2c(Cl)cncc2Cl)ccc(OC)c1OC [Compound 137, 1-(2-But-3-enyloxy-3,4-dimethoxy-phenyl)-2-(3,5-dichloro-pyridin-4-yl)-ethanone] | < 1000 nM
C=CCCCOc1c(C(=O)Cc2c(Cl)cncc2Cl)ccc(OC)c1OC [Compound 138, 2-(3,5-Dichloro-pyridin-4-yl)-1-(3,4-dimethoxy-2-pent-4-enyloxy-phenyl)-ethanone] | < 1000 nM
CCCCOc1c(C(=O)Cc2c(Cl)cncc2Cl)ccc(OC)c1OC [Compound 140, 1-(2-Butoxy-3,4-dimethoxy-phenyl)-2-(3,5-dichloro-pyridin-4-yl)-ethanone] | < 1000 nM
COc1ccc(C(=O)Cc2c(Cl)cncc2Cl)c(OCC(C)C)c1OC [Compound 141, 2-(3,5-Dichloro-pyridin-4-yl)-1-(2-isobutoxy-3,4-dimethoxy-phenyl)-ethanone] | < 1000 nM
CCOC(=O)CCCOc1c(C(=O)Cc2c(Cl)cncc2Cl)ccc(OC)c1OC [Compound 142, 4-{6-[2-(3,5-Dichloro-pyridin-4-yl)-acetyl]-2,3-dimethoxy-phenoxy}-butyric acid ethyl ester] | < 1000 nM
COc1ccc(C(=O)Cc2c(Cl)cncc2Cl)c(OCc2ccc(C)cc2)c1OC [Compound 143, 2-(3,5-Dichloro-pyridin-4-yl)-1-[3,4-dimethoxy-2-(4-methyl-benzyloxy)-phenyl]-ethanone] | < 1000 nM
COc1ccc(C(=O)Cc2c(Cl)cncc2Cl)c(OCc2cccc(Cl)c2)c1OC [Compound 144, 1-[2-(3-Chloro-benzyloxy)-3,4-dimethoxy-phenyl]-2-(3,5-dichloro-pyridin-4-yl)-ethanone] | < 1000 nM
